These results are taken from patent US20240350497A1, “COMBINATION THERAPY FOR THE TREATMENT OF PAN-KRAS MUTATED CANCERS” (Tiziana Life Sciences PLC, priority 2021, published 2024).

Data set [1] deals with cell lines harboring KRAS mutations. As to the kind of experiment: sensitivity of KRAS mutant cell lines to CDK inhibitor in vitro. The class given is cell-based. From the text: (§1) FIG. 7A and FIG. 7B are plots showing dose-response curves of colorectal non-isogenic cells containing either wild type (WT) or mutated KRAS in response to CDK inhibitors AT7519 (FIG. 7A) or dinaciclib (FIG. 7B). The cyclin-dependent kinase, CDK1, is a synthetic lethal target for KRAS mutant tumors. KRAS mutant cells show increased activity of CDK1 (FIGS. 6A-6D). The inhibition of CDK1 causes a reduction in the S-phase of the cell cycle progression decreasing cell proliferation in KRAS mutant cells. This decreased cell cycle activity is observed by the modulation of Rb, a master control of the G1/S checkpoint. Through a series of experiments, including using parallel siRNA screens in KRAS mutant and wild type colorectal isogenic tumor cells and subsequently validated in a genetically diverse panel of 26 colorectal and pancreatic tumor cell models, the KRAS/CDK1 interaction has a synthetic lethal effect on cancer cells.

Data set [2] has as its system KRAS mutant tumor xenografts. The experiment in a line: KRAS mutant tumor xenografts treated with CDK inhibitor in vivo. On the set-up: species or system mice.
Description: FIG. 8A is a plot showing the change in tumor volume of KRAS mutant tumor xenografts in mice treated with vehicle control (DMSO) or the CDK inhibitor AZD5438.
FIG. 8B is a plot showing the percent survival of mice harboring KRAS mutant tumor xenografts following treatment with either vehicle control (DMSO) or the CDK inhibitor AZD5438. FIG. 8C is a chart showing the tumor weight in mice harboring KRAS mutant tumor xenografts following treatment with either vehicle control (DMSO) or the CDK inhibitor AZD5438. FIG. 8D is a series of images showing tumor shrinkage in mice harboring KRAS mutant tumor xenografts following treatment with the CDK inhibitor AZD5438.
as §1, with “The” for “FIG. 7A and FIG. 7B are plots showing dose-response curves of colorectal non-isogenic cells containing either wild type (WT) or mutated KRAS in response to CDK inhibitors AT7519 (FIG. 7A) or dinaciclib (FIG. 7B). The”

Data set [3] concerns HCT-116 human colon carcinoma. The experiment in a line: milciclib in combination with 5-FU, HCT-116 human colon carcinoma xenograft. The following applies: for animal deaths: single agents at the tested doses. As for the experimental part:
(§2) The efficacy of milciclib was tested in several human xenografts implanted in the hind flank region of athymic mice (FIG. 18). Models in nude mice included A2780 ovarian cancer, DU-145 prostatic cancer, BX-PC3 pancreatic cancer, A549 non-small cell lung cancer, MDA-MB-231 breast cancer, MIA-PACA-2 pancreatic cancer, A375 melanoma, CAPAN-1 pancreatic cancer, and HCT-116 colon cancer. The MIA-PACA-2 and CAPAN-1 pancreatic cancer cell lines both express KRAS mutants. The MIA-PACA-2 and CAPAN-1 cell lines tested with milciclib harbor the KRAS mutants, G12C and G12V, respectively. […] The HCT-116 colon cancer cell line expresses the G13D KRAS mutant, making up of 15.5% of CRC KRAS mutants Following implantation, tumors were allowed to establish to a size of 100 mm3 prior to oral administration of milciclib. In all these experiments, a daily bid treatment was administered for a maximum of 10 days.
Activity of milciclib has been tested in combination with 5-FU on HCT-116 human colon carcinoma cells (FIG. 10A). The HCT-116 cell line expresses the KRAS G13D mutant.

Data set [4] relates to BX-PC3 human pancreatic carcinoma. The experiment in a line: milciclib in combination with gemcitabine, BX-PC3 human pancreatic carcinoma, first experiment. The following applies: for animal deaths: single agents at the tested doses. As for the experimental part: A combination therapy of milciclib and the DNA damaging agent, gemcitabine, was treated on BX-PC3 human pancreatic carcinoma (FIG. 12A).

Data set [5] has as its system NSCLC. The settings on record: single agent, Phase II studies; cited from earlier work.
In data set [6] the test system is BX-PC3 human pancreatic carcinoma. As to the kind of experiment: milciclib in combination with gemcitabine, BX-PC3 human pancreatic carcinoma, second experiment. The following applies: for animal deaths: single agents at the tested doses. As for the experimental part: A second experiment was conducted of milciclib in combination with gemcitabine on BX-PC3 human pancreatic carcinoma (FIG. 12B and FIG. 12C).

Data set [7] concerns HCT-116 human colon carcinoma. As to the kind of experiment: milciclib in combination with irinotecan, HCT-116 human colon carcinoma xenograft model. The settings on record: for animal deaths: single agents at the tested doses. The method, then:
as §2
Topoisomerase enzymes control the manipulation of the structure of DNA necessary for replication.
A general note: In xenograft studies the graft and the host belong to different species.

In data set [8] the test system is CAPAN-1 pancreatic cancer (KRAS G12V). The experiment in a line: human xenograft efficacy, CAPAN-1. The following applies: oral, daily bid treatment for a maximum of 10 days. The class given is in vivo, athymic mice.
The subject of data set [9] is A2780 human ovarian carcinoma. As to the kind of experiment: A2780 human ovarian carcinoma xenografts, oral milciclib. The format is in vivo, mice. As for the experimental part:
Pathogenic KRAS mutations were present in 606 patients of 7,325 epithelial ovarian cancers from the Caris Database, about 8.3% of the total. The frequency of KRAS mutation by subtype occurred in the following: 36.4% G12D, 35.8% G12V, and 8.4% G12C. A dose-dependent inhibition of tumor growth was measured in mice harboring A2780 human ovarian carcinoma xenografts administered with daily oral administration of milciclib.

The test system of data set [10] is N-592 human small cell carcinoma. The settings on record: for animal deaths: single agents at the tested doses.
Description: Milciclib was tested orally at the doses of 20 and 30 mg/kg twice a day for 17 consecutive days.
For data set [11], the system named is MIA-PACA-2 pancreatic cancer (KRAS G12C). The experiment in a line: human xenograft efficacy, MIA-PACA-2. The format is in vivo, athymic mice. The following applies: oral, daily bid treatment for a maximum of 10 days.
For data set [12], the system named is KRAS G12D LA2 pulmonary cancerous lesions. As to the kind of experiment: transgenic mouse model KRAS G12D LA2, MRI. The following applies: in vivo. As for the experimental part:
Milciclib was tested in a transgenic mouse model KRAS G12D LA2 that develops pulmonary cancerous lesions reminiscent of human lung adenocarcinomas. Milciclib was tested to follow longitudinal disease progression and evaluate therapeutic efficacy by using magnetic resonance imaging (MRI) and positron emission tomography (PET). […] The MRI methodology used in this study allow longitudinal monitoring of tumor development and response in a single animal, and furthermore, allows for more clinically relevant study design and increases its statistical relevance.

Data set [13] has as its system advanced solid malignancies. The settings on record: oral, phase I; cited from earlier work.
Data set [14] relates to MDA-MB-231 cells. As to the kind of experiment: MDA-MB-231 cells exposed to milciclib and DNA damaging agent, alone or in combination. The class given is cell-based, human. The following applies: TNBC cells. As for the experimental part:
The use of milciclib in combination with five chemotherapeutic drugs already in use was tested for the treatment of TNBC including paclitaxel, doxorubicin, 5-FU, cisplatin, and cyclophosphamide. Potential synergistic effects with milciclib by exposing MDA-MB-231 cells to serial dilutions of milciclib and each DNA damaging agent, alone or in combination, in clinically relevant concentrations (FIG. 16A). […] Tumor proliferation was reduced by nearly 5 times for the combination treatment of milciclib and cisplatin compared to the vehicle treated group, assessed by Ki67 staining.

Data set [15] deals with MDA-MB-231 human breast cancer. The method, then:
FIG. 15A is a series of plots showing change in tumor volume in mice bearing MDA-MB-231 human breast cancer tumor xenografts following treatment with 40 mg/kg milciclib (PHA-848125) (n=8) or vehicle control (5% glucose solution) (n=8) via oral gavage twice daily on a 5-days-on/2-days-off schedule for four weeks. FIG. 15B is a series of images and a chart showing immunohistochemistry staining of Ki67 and mitotic nucleus counts, and corresponding quantification in tumor tissue collected 48 hours after the last treatment with milciclib (PHA-848125) or vehicle control for 3 weeks.

The mark [16] stands for this setting: milciclib 20 mg/kg orally twice a day for 9 consecutive days.
The mark [17] stands for this setting: milciclib 40 mg/kg orally twice a day for 9 consecutive days.

Read-outs that look alike come from different tables or passages of the source.

For the compound `O=C(NC1CCNCC1)c1[nH]ncc1NC(=O)c1c(Cl)cccc1Cl` [AT519], in [1], the “sensitivity of KRAS mutant versus wild type cells” value is on record as “increased sensitivity”.

In the case of `Cc1ncc(-c2ccnc(Nc3ccc(S(C)(=O)=O)cc3)n2)n1C(C)C` [AZD5438], in data set [2], the “sensitivity of KRAS mutant tumors” value is recorded as “increased sensitivity”.

Take `O=c1[nH]cc(F)c(=O)[nH]1` [Compound 5-FU, 5-fluorouracil, reference compound]: the TGI in [3] (5-FU 50 mg/kg IV q7dx2) came out at 33%. The animal deaths entry in data set [3] is on record as “No animal died”.

Take `Nc1ccn([C@@H]2O[C@H](CO)[C@@H](O)C2(F)F)c(=O)n1` [gemcitabine, reference compound]: the TGI in [4] (gemcitabine 80 mg/kg IV) stood at 61%; in [6] (gemcitabine 80 mg/kg IV q4dx3), 70%; in data set [6] (gemcitabine 80 mg/kg IV q7dx3) it was 62%. Further, the animal deaths result in data set [4] and in [6] was “No animal died” throughout. Moreover, the median survival in data set [5] is reported as 9 months. Also, in [5], the objective response rate is 20-25%.

Turning to `CCc1c2c(nc3ccc(OC(=O)N4CCC(N5CCCCC5)CC4)cc13)-c1cc3c(c(=O)n1C2)COC(=O)[C@]3(O)CC` [irinotecan, reference compound], in data set [7] (irinotecan 45 mg/kg IV q4dx3), the TGI worked out at 84%. In addition, in data set [7], the animal deaths entry is given as “No animal died”.

Take `CNC(=O)c1nn(C)c2c1C(C)(C)Cc1cnc(Nc3ccc(N4CCN(C)CC4)cc3)nc1-2` [milciclib, N,1,4,4-tetramethyl-8-((4-(4-methylpiperazin-1-yl)phenyl)amino)-4,5-dihydro-1H-pyrazolo[4,3-h]quinazoline-3-carboxamide]: the maximal inhibition in data set [8] is 65%; in [11], 70%. Moreover, the results for the “tumor growth inhibition (TGI)” value in data set [9] (20 mg/kg bid), in data set [9] (30 mg/kg bid) and in [9] (40 mg/kg bid) were 53%, 76% and 91%, respectively. For the same compound, the TGI in data set [10] (milciclib 20 mg/kg orally twice a day for 17 consecutive days) was 34%; in [10] (milciclib 30 mg/kg orally twice a day for 17 consecutive days) it was 56%; in data set [4] (setting [16]) it was 61%; in [4] (setting [17]), 79%; in [7] (milciclib 20 mg/Kg orally twice a day for 9 days) it was 38%; in data set [7] (milciclib 30 mg/Kg orally twice a day for 9 days), 60%. Also, the TGI is given as 74% in [6] (setting [16]); 80% in data set [6] (milciclib 20 mg/kg twice a day for 15 days); 88% in data set [6] (setting [17]); 42% in data set [3] (milciclib 20 mg/kg orally twice a day for 12 days); 64% in data set [3] (milciclib 30 mg/kg orally twice a day for 12 days). The animal deaths entry in data set [10], in data set [4], in data set [7], in [6] and in [3] was “No animal died” each time. Moreover, the “tumor growth inhibition at the end of treatment, measured by MRI” value in [12] is “significant tumor growth inhibition”. In addition, the RP2D in data set [13] is recorded as 150 mg/day. The tolerability entry in [13] is given as “well-tolerated”; in [15] (mouse, in vivo) it was “well tolerated”. Further, in [14], the “interaction with cisplatin, cisplatin-induced apoptosis” value is “acts synergistically”. Also, the tumor growth result in data set [15] (40 mg/kg oral gavage twice daily, 5-days-on/2-days-off) is recorded as “arrests tumor growth”.

Consider `CC[C@@]1(O)C(=O)OCc2c1cc1n(c2=O)Cc2cc3c(CN(C)C)c(O)ccc3nc2-1` [topotecan, reference compound], for which the animal deaths result in data set [10] was “No animal died”. The TGI in [10] (topotecan 6 mg/kg IV q4dx5) is given as 71%.
